Data on six compounds can be found in publication PMC9184620, “TAS1553, a small molecule subunit interaction inhibitor of ribonucleotide reductase, exhibits antitumor activity by causing DNA replication stress” (Communications Biology, 2022).

Each structure is given as a SMILES string.

Assay [1] addresses T1, RNR (R1 and R2 recombinant proteins) (Homo sapiens, UniProt P23921).
T1 construct: made in house; host or cells: Escherichia coli
T1 sequence (P23921 1-792): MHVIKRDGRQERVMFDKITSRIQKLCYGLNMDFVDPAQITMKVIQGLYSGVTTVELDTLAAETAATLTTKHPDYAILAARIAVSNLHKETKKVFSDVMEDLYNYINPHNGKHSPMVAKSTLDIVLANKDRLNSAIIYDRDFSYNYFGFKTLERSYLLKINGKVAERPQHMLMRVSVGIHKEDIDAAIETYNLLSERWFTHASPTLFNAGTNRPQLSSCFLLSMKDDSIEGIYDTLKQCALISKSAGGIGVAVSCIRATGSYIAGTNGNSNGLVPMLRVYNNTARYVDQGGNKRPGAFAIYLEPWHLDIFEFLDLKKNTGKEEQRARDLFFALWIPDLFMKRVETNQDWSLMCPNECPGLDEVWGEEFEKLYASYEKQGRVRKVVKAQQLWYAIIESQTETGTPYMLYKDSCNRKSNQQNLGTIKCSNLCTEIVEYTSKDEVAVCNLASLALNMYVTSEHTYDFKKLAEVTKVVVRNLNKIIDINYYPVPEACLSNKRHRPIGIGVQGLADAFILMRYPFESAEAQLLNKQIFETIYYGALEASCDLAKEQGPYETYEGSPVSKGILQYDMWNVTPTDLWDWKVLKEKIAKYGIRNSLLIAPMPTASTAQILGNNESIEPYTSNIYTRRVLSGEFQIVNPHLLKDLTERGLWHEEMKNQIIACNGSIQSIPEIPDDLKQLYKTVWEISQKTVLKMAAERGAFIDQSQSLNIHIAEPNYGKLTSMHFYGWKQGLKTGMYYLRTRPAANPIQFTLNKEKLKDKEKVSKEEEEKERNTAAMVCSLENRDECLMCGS
Nature of the assay: RNR assay (formation of dCDP from CDP). The format is biochemical. The settings on record: CDP to dCDP; mean ± SD; read-out: Enzyme IC50. The procedure: The binding affinity of TAS1553 to the R1 subunit was investigated using surface plasmon resonance (SPR) binding analysis. […] Next, we evaluated the inhibitory effect of TAS1553 against the enzymatic activity of RNR, consisting of R1 and R2 recombinant proteins. RNR activity was determined by its ability to reduce cytidine diphosphate (CDP) to deoxycytidine diphosphate (dCDP), based on a previous report. […] In addition to the inhibitory effect on RNR, TAS1553 was evaluated in a Eurofins LeadProfilingScreen panel assay including 68 proteins, such as ion channels, transporters, nuclear receptors, and G protein-coupled receptors, to examine its potential adverse activity.
The inhibition of RNR activity by the test compound was evaluated by measuring the formation of dCDP from CDP, as reported previously. The assay was performed for 30 min at 37 °C in a reaction mixture composed of 50 mmol/L HEPES, 4 mmol/L magnesium acetate, 100 mmol/L KCl, 6 mmol/L DTT, 2 mmol/L ATP, 0.24 mmol/L NADPH, 10.0 µmol/L CDP, 0.1 mg/mL BSA, 8.0 µg/mL His-R1, 2.4 µg/mL His-R2, and 1% DMSO with or without test compound. The reaction was discontinued by heat treatment at 95 °C for 5 min. The amount of dCDP after the reaction was quantified by a prominence HPLC system and LabSolutions software (SHIMADZU CORPORATION). Separations were performed at 265 nm in a Shim-pack XR-ODS column of particle size 2.2 μm (100 × 3.0 mm, SHIMADZU GLC Ltd.). Overall, 5 µL of each sample was injected, and chromatography was performed at 40 °C. Mobile A was composed of 10 mmol/L potassium dihydrogenphosphate, 10 mmol/L tetrabutylammonium hydroxide, 0.25% methanol and 8 mmol/L HCl. Mobile B was composed of 50 mmol/L potassium dihydrogenphosphate, 5.6 mmol/L tetrabutylammonium hydroxide, and 30% methanol. The gradient was as follows: 52–60% B for 9 min, 60–99% B for 1 min, 99% B for 5 min, 99–52% B for 1 min, and 52% B for 5 min. The flow rate was 0.5 mL/min. The experiment was performed in triplicates. IC50 values were calculated using the SAS software package.

A further assay has as its target T2, human R1 (Homo sapiens, UniProt P23921).
T2 construct: made in house; host or cells: Escherichia coli
T2 sequence (P23921 1-792): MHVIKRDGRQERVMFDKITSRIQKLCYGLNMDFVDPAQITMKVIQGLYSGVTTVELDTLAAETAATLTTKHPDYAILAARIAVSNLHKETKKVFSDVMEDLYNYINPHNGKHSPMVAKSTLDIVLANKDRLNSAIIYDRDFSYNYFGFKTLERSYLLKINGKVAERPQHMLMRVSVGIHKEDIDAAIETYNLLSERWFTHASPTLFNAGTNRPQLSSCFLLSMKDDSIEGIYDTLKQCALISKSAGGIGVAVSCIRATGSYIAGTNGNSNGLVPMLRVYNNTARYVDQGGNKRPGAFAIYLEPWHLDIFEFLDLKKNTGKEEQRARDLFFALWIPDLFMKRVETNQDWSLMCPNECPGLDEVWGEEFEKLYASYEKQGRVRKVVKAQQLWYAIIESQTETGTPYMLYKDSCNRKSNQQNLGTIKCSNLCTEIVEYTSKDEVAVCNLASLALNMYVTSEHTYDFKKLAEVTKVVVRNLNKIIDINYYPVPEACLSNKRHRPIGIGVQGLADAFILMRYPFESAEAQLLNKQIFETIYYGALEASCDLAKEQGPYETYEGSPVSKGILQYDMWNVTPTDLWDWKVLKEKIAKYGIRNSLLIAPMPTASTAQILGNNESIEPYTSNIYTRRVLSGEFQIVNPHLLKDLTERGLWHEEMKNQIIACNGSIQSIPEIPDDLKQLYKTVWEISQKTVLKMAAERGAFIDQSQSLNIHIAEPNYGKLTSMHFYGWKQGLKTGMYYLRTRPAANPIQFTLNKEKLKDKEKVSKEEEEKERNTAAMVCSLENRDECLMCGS
Nature of the assay: Fluorescence polarization binding assay (displacement of TAMRA-labeled P7 from R1). The settings on record: R1 and TAMRA-labeled P7; mean ± SD, three independent experiments; read-out: IC50, fluorescent polarization binding assay. From the text:
Fig. 1 Design and identification of the small molecule compound TAS1553 blocking the interaction between RNR subunits. a A schematic representation of the fluorescent polarization binding assay. TAMRA-labeled P7 heptapeptide was used as a probe. […] Data are presented as mean ± SD obtained from three independent experiments. c Chemical structures of compound 1 and TAS1553. d Superposition of the X-ray co-crystal structure of human RRM1 (green) with compound 1 (magenta) (PDB ID: 6L3R) to the previously determined X-ray co-crystal structure of Saccharomyces cerevisiae RNR1 (cyan) with P7 peptide (yellow) (PDB ID: 2ZLF). The residue numbers and protein surface shown here are those of hRRM1. e SPR analysis for the binding of TAS1553 to human R1 captured onto Series S Sensor Chip NTA. […] IC50 (mean ± SD) is determined from three independent experiments performed in triplicate.
TAMRA-labeled P7 peptide was obtained from Peptide Institute, Inc. to be used as a fluorescent probe in the FP binding assay. The final reaction mixture was composed of 50 mmol/L Tris-Cl (pH 8.0), 10 mmol/L DTT, 10 nmol/L TAMRA-P7, 32 ng/mL His-R1, and 1% DMSO with or without test compound. The assay was performed for 120 min at room temperature with protection from light, after which FP of each sample was measured with a PHERAstarFS. IC50 values were calculated using the SAS software package in EXSUS (CAC Croit).
Background: In fluorescence polarisation assays a small probe gives low polarisation when free and higher when bound to something large.

The target in assay [2] is T3, interaction between R1 and R2 (human RNR) (Homo sapiens, UniProt P23921).
T3 construct: host or cells: Escherichia coli (His-R1)
T3 sequence (P23921 1-792): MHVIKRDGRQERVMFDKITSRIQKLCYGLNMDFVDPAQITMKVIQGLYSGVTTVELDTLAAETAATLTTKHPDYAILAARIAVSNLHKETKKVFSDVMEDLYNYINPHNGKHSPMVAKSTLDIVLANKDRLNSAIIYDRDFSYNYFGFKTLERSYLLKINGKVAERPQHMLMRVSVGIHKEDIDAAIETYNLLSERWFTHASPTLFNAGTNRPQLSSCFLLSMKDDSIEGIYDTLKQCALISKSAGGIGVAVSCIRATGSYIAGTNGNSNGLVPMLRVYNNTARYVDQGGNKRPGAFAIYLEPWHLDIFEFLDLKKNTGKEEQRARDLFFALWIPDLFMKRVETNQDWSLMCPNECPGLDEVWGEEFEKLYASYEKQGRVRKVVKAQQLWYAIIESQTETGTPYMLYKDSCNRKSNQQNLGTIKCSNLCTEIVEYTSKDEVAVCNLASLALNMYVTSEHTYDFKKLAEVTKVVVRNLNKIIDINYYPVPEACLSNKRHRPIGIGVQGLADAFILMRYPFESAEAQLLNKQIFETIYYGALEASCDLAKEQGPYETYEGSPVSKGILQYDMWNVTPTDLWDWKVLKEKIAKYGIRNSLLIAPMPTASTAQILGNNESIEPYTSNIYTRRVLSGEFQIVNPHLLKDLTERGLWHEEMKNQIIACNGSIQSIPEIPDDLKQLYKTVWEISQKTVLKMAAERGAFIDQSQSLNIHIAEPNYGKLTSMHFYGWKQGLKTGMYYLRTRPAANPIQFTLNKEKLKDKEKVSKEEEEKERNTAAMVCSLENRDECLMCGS
Put plainly: AlphaLISA binding assay (interaction between His-R1 and GST-R2). The settings on record: recombinant R1 and R2; mean ± SD. (In general: In Alpha technology, singlet oxygen from a donor bead excites a nearby acceptor bead.)

The next assay has as its system HCC38 xenograft. Nature of the assay: Antitumor activity in mice bearing HCC38 xenografts. The format is in vivo, mouse. The settings on record: 539 mg/kg oral once daily for 14 days (maximum tolerated dose). The procedure:
Next, we evaluated the antitumor activity of a high-dose administration of TAS1553 and cytarabine in rats bearing MV-4-11 xenografts. […] The rats were treated with cytarabine for 5 days at 16 and 32 mg/kg. […] In addition to the hematologic tumor, we evaluated the antitumor activity of TAS1553 in mice implanted with HCC38 cell line as a solid tumor model. […] Finally, TAS1553 was evaluated for its survival benefit in a mouse model. To achieve this, we established mice bone marrow cells harboring the human MLL-AF9 fusion gene, which is known as a driver gene for AML in humans as well as mice[48]. Mice were transplanted with the cells through the tail vein and the treatment with TAS1553 was started 11 days post-implantation.
For the subcutaneous implantation model of MV-4-11, F344/NJcl-rnu/rnu rats were irradiated with X-ray (4 Gy) to improve the efficiency of xenograft implantation. Two days after X-ray irradiation, MV-4-11 cells suspended in PBS with 50 vol% Matrigel were inoculated into the rats (2 × 10^7 cells/animal). In the mice subcutaneous implantation model, HCC38 cells suspended same as above were inoculated into male BALB/cAJcl-nu/nu mice (1 × 10^7 cells /body). The animals were randomized and administered with the compound for 14 days. Antitumor activity and body weight change were evaluated as previously reported. Dunnett test using the SAS software package in EXSUS (CAC Croit) was used to compare the tumor volume (P < 0.05).

For orientation: IC50 means the point on the concentration scale where inhibition reaches its midpoint.

On to `NC(=S)N/N=C/c1ncccc1N` [3-AP, Triapine], for which the IC50 in assay [1] was 0.364 ± 0.106 µM.

As for `O=C(Nc1nc(-c2ccc(O)c(O)c2)c(-c2ccccc2)s1)c1ccc(O)c(O)c1` [COH29], in assay [1], the IC50 came out at 6.76 ± 0.71 µM.

Consider `CN(C)c1cccc2c(S(=O)(=O)N[C@@H](Cc3ccccc3)C(=O)O)cccc12` [Dansyl-L-phenyl alanine, reference compound], for which the IC50 on human R1 came to 3340 ± 540 µM.

As for `O=C(N[C@@H](Cc1ccccc1)C(=O)O)OCC1c2ccccc2-c2ccccc21` [Fmoc-L-phenylalanine, reference compound], on human R1, the IC50 was 934 ± 35 µM.

Consider `NC(=O)NO` [HU, Hydroxyurea, reference compound], for which the IC50 in assay [2] was greater than 1000 µM; in assay [1], 188 ± 32 µM.

Turning to `CCCCCOC(=O)Nc1nc(=O)n([C@@H]2O[C@H](C)[C@@H](O)[C@H]2O)cc1F` [capecitabine], the T/C ratio in the assay with HCC38 xenograft was determined as 67.9%.
